The record followed here is ChEMBL document CHEMBL3091424, “Anti-tubercular agents. Part 8: synthesis, antibacterial and antitubercular activity of 5-nitrofuran based 1,2,3-triazoles” (Bioorg Med Chem Lett, 2013).

By MIC is commonly meant the smallest concentration in the dilution series that meets the test's criterion for growth inhibition. By IC50 is commonly meant the concentration that gives 50% inhibition. As usually defined, the MBC is the lowest tested concentration that kills the bacteria rather than only halting them.

Assay [1] concerns Raoultella planticola. The experiment in a line: Antimicrobial activity against Klebsiella planticola MTCC 530 after 24 hrs by well diffusion method. The note with it: MTCC 530, 24 h. Type of assay: functional. A general note: Agar diffusion results depend on both activity and mobility in agar.
The test system of assay [2] is Pseudomonas aeruginosa. The experiment in a line: Antimicrobial activity against Pseudomonas aeruginosa MTCC 2453 after 24 hrs by well diffusion method. Format: functional. The note with it: MTCC 2453, 24 h.
Assay [3] concerns Escherichia coli. The assay is described as follows: Antimicrobial activity against Escherichia coli MTCC 739 after 24 hrs by well diffusion method. Format: functional. The note with it: MTCC 739, 24 h.
Assay [4] concerns Bacillus subtilis. The experiment in a line: Antimicrobial activity against Bacillus subtilis MTCC 121 after 24 hrs by well diffusion method. Format: functional. The note with it: MTCC 121, 24 h.
Assay [5] relates to Staphylococcus aureus. The assay is described as follows: Antimicrobial activity against Staphylococcus aureus MLS-16 MTCC 2940 after 24 hrs by well diffusion method. Format: functional. As to conditions: MLS-16 MTCC 2940, 24 h.
Assay [6] concerns Micrococcus luteus. The assay is described as follows: Antimicrobial activity against Micrococcus luteus MTCC 2470 after 24 hrs by well diffusion method. As to conditions: MTCC 2470, 24 h. Format: functional.
Assay [7] concerns Staphylococcus aureus. The experiment in a line: Antimicrobial activity against Staphylococcus aureus MTCC 96 after 24 hrs by well diffusion method. As to conditions: MTCC 96, 24 h. Type of assay: functional.
The next assay has as its system Vero. The assay is described as follows: Cytotoxicity against african green monkey Vero cells. Format: cell-based. The note with it: Chlorocebus sabaeus.
The test system of the next assay is MRC5. The experiment in a line: Cytotoxicity against human MRC5 cells. Format: cell-based.
The test system of assay [8] is Mycobacterium tuberculosis. The experiment in a line: Antimicrobial activity against Mycobacterium tuberculosis H37Rv after 3 weeks by broth dilution method. Type of assay: functional. The note with it: for MIC: 504 h. For orientation: Broth dilution looks for growth in wells or tubes with falling amounts of substance.
In assay [9] the test system is Raoultella planticola. The assay is described as follows: Antibiofilm activity against Klebsiella planticola MTCC 530 after 24 hrs by crystal violet assay. Type of assay: functional, organism-based. The note with it: for IC50: MTCC 530, 24 h.
Assay [10] relates to Staphylococcus aureus. The experiment in a line: Antibiofilm activity against Staphylococcus aureus MLS-16 MTCC 2940 after 24 hrs by crystal violet assay. Format: functional, organism-based. The note with it: MLS-16 MTCC 2940, 24 h.
The test system of assay [11] is Staphylococcus aureus. The experiment in a line: Antibiofilm activity against Staphylococcus aureus MTCC 96 after 24 hrs by crystal violet assay. Type of assay: functional, organism-based. As to conditions: for IC50: MTCC 96, 24 h.
For assay [12], the system named is Staphylococcus aureus. The experiment in a line: Antimicrobial activity against methicillin-resistant Staphylococcus aureus after 24 hrs by microdilution method. Type of assay: functional.
The subject of another assay is Candida albicans. The assay is described as follows: Antimicrobial activity against Candida albicans MTCC 3017 at 150 ug/ml after 24 hrs by well diffusion method. Type of assay: functional, organism-based.
In assay [13] the test system is Raoultella planticola. The experiment in a line: Bactericidal activity against Klebsiella planticola MTCC 530 after 24 hrs. Type of assay: functional. As to conditions: MTCC 530, 24 h.
In assay [14] the test system is Pseudomonas aeruginosa. The experiment in a line: Bactericidal activity against Pseudomonas aeruginosa MTCC 2453 after 24 hrs. Format: functional. As to conditions: MTCC 2453, 24 h.
In assay [15] the test system is Escherichia coli. The experiment in a line: Bactericidal activity against Escherichia coli MTCC 739 after 24 hrs. Format: functional. The note with it: MTCC 739, 24 h.
For assay [16], the system named is Bacillus subtilis. The experiment in a line: Bactericidal activity against Bacillus subtilis MTCC 121 after 24 hrs. Type of assay: functional. The note with it: MTCC 121, 24 h.
The subject of assay [17] is Staphylococcus aureus. The assay is described as follows: Bactericidal activity against Staphylococcus aureus MLS-16 MTCC 2940 after 24 hrs. Type of assay: functional. The note with it: MLS-16 MTCC 2940, 24 h.
In assay [18] the test system is Staphylococcus aureus. The assay is described as follows: Bactericidal activity against Staphylococcus aureus MTCC 96 after 24 hrs. The note with it: MTCC 96, 24 h. Type of assay: functional.
In a further assay the test system is Enterococcus faecalis. The assay is described as follows: Antimicrobial activity against vancomycin -resistant Enterococcus faecalis after 24 hrs by microdilution method. Format: functional.
Assay [19] relates to Micrococcus luteus. The assay is described as follows: Bactericidal activity against Micrococcus luteus MTCC 2470 after 24 hrs. Format: functional. As to conditions: MTCC 2470, 24 h.

Converted amounts (≈) assume the structure as drawn. The source made the active and inactive calls. Bounds are passed on as bounds.

Consider `COc1ccc(Cn2cc(CNC(=O)c3ccc([N+](=O)[O-])o3)nn2)cc1[N+](=O)[O-]`, for which the minimal inhibitory concentration (MIC) against Raoultella planticola [1] was 9.37 µg/mL (≈ 23.3 µM); against Pseudomonas aeruginosa [2], greater than 150 µg/mL; in the assay with Escherichia coli [3], 18.8 µg/mL (≈ 46.6 µM); with Bacillus subtilis [4], 2.34 µg/mL (≈ 5.82 µM); against Staphylococcus aureus [5], 4.68 µg/mL (≈ 11.6 µM); against Micrococcus luteus [6], 4.68 µg/mL (≈ 11.6 µM). The MIC in the assay with Staphylococcus aureus [7] is greater than 150 µg/mL; in [8], 16 µg/mL (≈ 39.8 µM); in the assay with Staphylococcus aureus [12] it was 8 µg/mL (≈ 19.9 µM); in the assay on Enterococcus faecalis it was greater than 64 µg/mL. Also, the IC50 came to 176 µM in the assay with Vero; 198 µM in the assay on MRC5; 6.1 µg/mL (≈ 15.2 µM) with Raoultella planticola [9]; 4.1 µg/mL (≈ 10.2 µM) with Staphylococcus aureus [10]; 91.2 µg/mL (≈ 227 µM) in the assay on Staphylococcus aureus [11]. Besides, in the assay on Candida albicans, the result was inactive. The MBC against Raoultella planticola [13] was 18.8 µg/mL (≈ 46.6 µM); against Pseudomonas aeruginosa [14], greater than 150 µg/mL; in the assay on Escherichia coli [15], 18.8 µg/mL (≈ 46.6 µM); against Bacillus subtilis [16] it was 2.34 µg/mL (≈ 5.82 µM); with Staphylococcus aureus [17] it was 4.68 µg/mL (≈ 11.6 µM); against Staphylococcus aureus [18] it was greater than 150 µg/mL. The compound further showed a minimal bactericidal concentration (MBC) against Micrococcus luteus [19] of 9.37 µg/mL (≈ 23.3 µM).

Consider `COc1ccc(Cn2cc(CNC(=O)c3ccc([N+](=O)[O-])o3)nn2)cc1F`, for which the MIC against Raoultella planticola [1] was 18.8 µg/mL (≈ 50 µM); with Pseudomonas aeruginosa [2] it was greater than 150 µg/mL; with Escherichia coli [3], greater than 150 µg/mL; in the assay with Bacillus subtilis [4] it was 2.34 µg/mL (≈ 6.23 µM); against Staphylococcus aureus [5], 4.68 µg/mL (≈ 12.5 µM); in the assay with Micrococcus luteus [6], 4.68 µg/mL (≈ 12.5 µM). This compound showed a minimum inhibitory concentration (MIC) against Staphylococcus aureus [7] greater than 150 µg/mL. In addition, the IC50 was 312 µM with Vero, 324 µM in the assay with MRC5, 9.8 µg/mL (≈ 26.1 µM) in the assay on Raoultella planticola [9] and 3.4 µg/mL (≈ 9.06 µM) in the assay on Staphylococcus aureus [10]. Also, the outcome (in assay [8]; with Candida albicans) was inactive. In addition, in the assay with Staphylococcus aureus [11], the inhibition result is “inactive”. The MBC in the assay on Raoultella planticola [13] is 18.8 µg/mL (≈ 50 µM); with Pseudomonas aeruginosa [14] it was greater than 150 µg/mL; with Escherichia coli [15], greater than 150 µg/mL; against Bacillus subtilis [16], 4.68 µg/mL (≈ 12.5 µM); against Staphylococcus aureus [17], 9.37 µg/mL (≈ 25 µM); in the assay with Staphylococcus aureus [18], greater than 150 µg/mL. In the assay on Micrococcus luteus [19], this compound had a minimal bactericidal concentration (MBC) of 9.37 µg/mL (≈ 25 µM).

Consider `COc1cc(Cn2cc(CNC(=O)c3ccc([N+](=O)[O-])o3)nn2)ccc1O`, for which the MIC against Raoultella planticola [1] is 75 µg/mL (≈ 201 µM); against Pseudomonas aeruginosa [2], greater than 150 µg/mL; in the assay on Escherichia coli [3], 37.5 µg/mL (≈ 100 µM); in the assay on Bacillus subtilis [4] it was 4.68 µg/mL (≈ 12.5 µM); in the assay with Staphylococcus aureus [5], 2.34 µg/mL (≈ 6.27 µM); in the assay on Micrococcus luteus [6], 1.17 µg/mL (≈ 3.13 µM). Also, the minimal inhibitory concentration (MIC) with Staphylococcus aureus [7] was 18.8 µg/mL (≈ 50.2 µM); in assay [8], 8 µg/mL (≈ 21.4 µM); against Staphylococcus aureus [12], 16 µg/mL (≈ 42.9 µM); in the assay on Enterococcus faecalis it was greater than 64 µg/mL. Further, the IC50 with Vero came out at 224 µM; in the assay with MRC5, 182 µM; with Raoultella planticola [9], 42.5 µg/mL (≈ 114 µM); in the assay with Staphylococcus aureus [10], 1.7 µg/mL (≈ 4.55 µM); with Staphylococcus aureus [11] it was 10.8 µg/mL (≈ 28.9 µM). Also, the outcome with Candida albicans was inactive. The MBC in the assay on Raoultella planticola [13] was 75 µg/mL (≈ 201 µM); against Pseudomonas aeruginosa [14], greater than 150 µg/mL; in the assay on Escherichia coli [15] it was 75 µg/mL (≈ 201 µM); against Bacillus subtilis [16] it was 9.37 µg/mL (≈ 25.1 µM); with Staphylococcus aureus [17], 4.68 µg/mL (≈ 12.5 µM); against Staphylococcus aureus [18], 18.8 µg/mL (≈ 50.2 µM). In the assay with Micrococcus luteus [19], this compound came in with a minimal bactericidal concentration (MBC) of 2.34 µg/mL (≈ 6.27 µM).

Turning to `COc1cc(Cn2cc(CNC(=O)c3ccc([N+](=O)[O-])o3)nn2)ccc1F`, the MIC with Raoultella planticola [1] is 37.5 µg/mL (≈ 99.9 µM); with Pseudomonas aeruginosa [2], greater than 150 µg/mL; in the assay on Escherichia coli [3] it was greater than 150 µg/mL; against Bacillus subtilis [4], 2.34 µg/mL (≈ 6.23 µM); against Staphylococcus aureus [5] it was 9.37 µg/mL (≈ 25 µM); in the assay on Micrococcus luteus [6], 1.17 µg/mL (≈ 3.12 µM). The MIC against Staphylococcus aureus [7] is greater than 150 µg/mL. The 50% inhibitory concentration (IC50) turned out to be 225 µM in the assay with Vero, 155 µM in the assay with MRC5, 22.7 µg/mL (≈ 60.5 µM) in the assay with Raoultella planticola [9] and 2.7 µg/mL (≈ 7.19 µM) in the assay on Staphylococcus aureus [10]. The outcome (in assay [8]; in the assay with Candida albicans) was inactive. Besides, the inhibition entry in the assay on Staphylococcus aureus [11] was “inactive”. Moreover, the MBC is 37.5 µg/mL (≈ 99.9 µM) against Raoultella planticola [13]; greater than 150 µg/mL in the assay with Pseudomonas aeruginosa [14]; greater than 150 µg/mL against Escherichia coli [15]; 4.68 µg/mL (≈ 12.5 µM) with Bacillus subtilis [16]; 9.37 µg/mL (≈ 25 µM) against Staphylococcus aureus [17]; greater than 150 µg/mL against Staphylococcus aureus [18]. Besides, the MBC with Micrococcus luteus [19] stood at 1.17 µg/mL (≈ 3.12 µM).

Turning to `O=C(NCc1cn(Cc2ccc(C(F)(F)F)cc2)nn1)c1ccc([N+](=O)[O-])o1`, the MIC with Raoultella planticola [1] was greater than 150 µg/mL; against Pseudomonas aeruginosa [2] it was greater than 150 µg/mL; against Escherichia coli [3] it was greater than 150 µg/mL; with Bacillus subtilis [4], 1.17 µg/mL (≈ 2.96 µM); in the assay with Staphylococcus aureus [5] it was 2.34 µg/mL (≈ 5.92 µM); in the assay on Micrococcus luteus [6], 2.34 µg/mL (≈ 5.92 µM). The compound also displayed an MIC against Staphylococcus aureus [7] greater than 150 µg/mL. Further, the IC50 with Vero amounted to 289 µM; in the assay on MRC5, 321 µM; in the assay on Staphylococcus aureus [10], 8.4 µg/mL (≈ 21.2 µM); in the assay on Staphylococcus aureus [11] it was 64.7 µg/mL (≈ 164 µM). The result (in [8]; in the assay on Candida albicans) was inactive. Moreover, in the assay on Raoultella planticola [9], the inhibition result is “inactive”. In addition, the minimum bactericidal concentration (MBC) against Raoultella planticola [13] was greater than 150 µg/mL; against Pseudomonas aeruginosa [14], greater than 150 µg/mL; in the assay on Escherichia coli [15] it was greater than 150 µg/mL; with Bacillus subtilis [16] it was 4.68 µg/mL (≈ 11.8 µM); in the assay with Staphylococcus aureus [17], 2.34 µg/mL (≈ 5.92 µM); against Staphylococcus aureus [18], greater than 150 µg/mL. Further, the MBC against Micrococcus luteus [19] was determined as 2.34 µg/mL (≈ 5.92 µM).
